Measured values: PMC6219668 (Oncotarget, 2018)

Tested on: panel of nearly 500 cancer cell lines
Assay: Cancer Cell Line Encyclopedia profiling, 3-day CellTiter-Glo
Assay type: cell-based
Details: Homo sapiens

CN(C)C(=O)c1cc2cnc(Nc3ccc(N4CCNCC4)cn3)nc2n1C1CCCC1 [Ribociclib, 7-cyclopentyl-2-(5-piperazin-1-yl-pyridin-2-ylamino)-7H-pyrrolo[2,3-d]pyrimidine-6-carboxylic acid dimethylamide]
0.593 µM: EC50 (SW1990)
0.797 µM: EC50 (P12-Ichikawa)
0.0694 µM: EC50 (OV-90)
0.88 µM: EC50 (SK-N-DZ)
1.16 µM: IC50 (OCI-AML2)
7.74 µM: IC50 (SK-N-SH)
1.26 µM: EC50 (SK-LMS-1)
0.45 µM: EC50 (SW-620)
5.27 µM: IC50 (SK-MES-1)
0.159 µM: EC50 (SW780)
0.3 µM: EC50 (NCI-H2452)
2.4 µM: EC50 (SNU1)
0.569 µM: EC50 (SNU-398)
1.11 µM: EC50 (NCI-H1703)
0.323 µM: EC50 (SF-295)
0.457 µM: EC50 (SK-N-AS)
0.838 µM: EC50 (OCI-AML2)
1.54 µM: IC50 (RPMI 8402)
0.324 µM: EC50 (SW1573)
3.74 µM: IC50 (P12-Ichikawa)
0.951 µM: EC50 (RPMI 8402)
0.385 µM: EC50 (SW900)
3.44 µM: IC50 (SK-N-DZ)
1.95 µM: EC50 (SCaBER)
0.00254 µM: EC50 (SCC-9)
0.338 µM: EC50 (NCI-H2087)
5.26 µM: EC50 (SK-MES-1)
1.05 µM: EC50 (NCI-H1975)
> 8 µM: IC50 (NCI-H1666) | IC50 (NCI-H1693) | EC50 (NCI-H1694) | IC50 (NCI-H1694) | IC50 (NCI-H1703) | EC50 (NCI-H1792) | IC50 (NCI-H1792) | IC50 (NCI-H1793) | IC50 (NCI-H1944) | IC50 (NCI-H1975) | EC50 (NCI-H2009) | IC50 (NCI-H2009) | IC50 (NCI-H2030) | IC50 (NCI-H2052) | IC50 (NCI-H2087) | EC50 (NCI-H2122) | EC50 (NCI-H2170) | IC50 (NCI-H2170) | EC50 (NCI-H2228) | IC50 (NCI-H2228) | IC50 (NCI-H2286) | EC50 (NCI-H2444) | IC50 (NCI-H2444) | IC50 (NCI-H2452) | EC50 (NCI-H3255) | IC50 (NCI-H3255) | EC50 (NCI-N87) | IC50 (NCI-N87) | EC50 (NUGC-3) | IC50 (NUGC-3) | EC50 (OC-314) | IC50 (OC-314) | IC50 (OCI-AML-5) | EC50 (OCI-Ly10) | IC50 (OCI-Ly10) | EC50 (OE33) | IC50 (OE33) | IC50 (OV-90) | EC50 (OVCAR-3) | IC50 (OVCAR-3) | EC50 (OVCAR-4) | IC50 (OVCAR-4) | EC50 (OVCAR-8) | IC50 (OVCAR-8) | EC50 (OVSAHO) | IC50 (OVSAHO) | EC50 (P3HR-1) | IC50 (P3HR-1) | EC50 (P31-FUJ) | IC50 (P31-FUJ) | EC50 (PANC-03-27) | IC50 (PANC-03-27) | IC50 (PC-14) | EC50 (PLC-PRF-5) | IC50 (PLC-PRF-5) | IC50 (PSN1) | EC50 (Panc 02.03) | IC50 (Panc 02.03) | EC50 (Panc 04.03) | IC50 (Panc 04.03) | EC50 (Panc1005) | IC50 (Panc1005) | EC50 (Pfeiffer) | IC50 (Pfeiffer) | IC50 (RL95-2) | IC50 (RPMI-7951) | IC50 (RT-112) | EC50 (RVH-421) | IC50 (RVH-421) | EC50 (Raji) | IC50 (Raji) | EC50 (SAOS-2) | IC50 (SAOS-2) | IC50 (SBC-5) | IC50 (SCC-9) | IC50 (SCaBER) | EC50 (SF-126) | IC50 (SF-126) | IC50 (SF-295) | EC50 (SHP77) | IC50 (SHP77) | EC50 (SJRH30) | IC50 (SJRH30) | IC50 (SJSA-1) | EC50 (SK-BR-3) | IC50 (SK-BR-3) | IC50 (SK-CO-1) | IC50 (SK-ES1) | IC50 (SK-HEP1) | IC50 (SK-LMS-1) | IC50 (SK-LU-1) | EC50 (SK-MEL-2) | IC50 (SK-MEL-2) | IC50 (SK-MEL-5) | EC50 (SK-MEL-24) | IC50 (SK-MEL-24) | EC50 (SK-MEL-30) | IC50 (SK-MEL-30) | EC50 (SK-MM-2) | IC50 (SK-MM-2) | IC50 (SK-N-AS) | EC50 (SK-N-SH) | EC50 (SK-OV-3) | IC50 (SK-OV-3) | IC50 (SNU1) | EC50 (SNU-16) | IC50 (SNU-16) | EC50 (SNU-182) | IC50 (SNU-182) | EC50 (SNU-387) | IC50 (SNU-387) | IC50 (SNU-398) | EC50 (SNU-423) | IC50 (SNU-423) | EC50 (SNU-449) | IC50 (SNU-449) | EC50 (SNU-475) | IC50 (SNU-475) | EC50 (SNU-C2B) | IC50 (SNU-C2B) | IC50 (SU-DHL-6) | EC50 (SU.86.86) | IC50 (SU.86.86) | EC50 (SUP-T1) | IC50 (SUP-T1) | IC50 (SW48) | IC50 (SW480) | IC50 (SW780) | IC50 (SW900) | EC50 (SW1088) | IC50 (SW1088) | EC50 (SW1353) | IC50 (SW1353) | EC50 (SW1417) | IC50 (SW1417) | IC50 (SW1573) | IC50 (SW1990) | EC50 (SW-403) | IC50 (SW-620) | EC50 (T47D) | IC50 (T47D) | EC50 (T98G) | IC50 (T98G)
5.75 µM: EC50 (SU-DHL10) | IC50 (SU-DHL10)
2.76 µM: EC50 (SK-CO-1)
0.329 µM: EC50 (SU-DHL-4)
0.545 µM: EC50 (RT-112)
0.742 µM: EC50 (SU-DHL-6)
1.6 µM: EC50 (SU-DHL-8)
0.351 µM: EC50 (NCI-H1693)
0.22 µM: IC50 (SIG-M5)
0.212 µM: EC50 (NUGC-4)
2.3 µM: EC50 (SBC-5)
0.373 µM: EC50 (SK-HEP1)
0.506 µM: EC50 (NCI-H2286)
0.0207 µM: EC50 (NCI-H2052)
0.807 µM: EC50 (RPMI-7951)
4.34 µM: IC50 (SW-403)
0.0796 µM: EC50 (SIG-M5)
1.29 µM: EC50 (NCI-H2030)
1.8 µM: IC50 (SKNBE2)
4.03 µM: EC50 (PC-14)
1.07 µM: IC50 (NUGC-4)
0.00418 µM: EC50 (NCI-H1793)
3.35 µM: EC50 (RL95-2)
2.03 µM: EC50 (PSN1)
0.0436 µM: EC50 (SK-ES1)
0.187 µM: EC50 (OCI-AML-5)
6.21 µM: EC50 (SW480)
3.73 µM: IC50 (NCI-H2122) | IC50 (SU-DHL-8)
1.18 µM: EC50 (SJSA-1)
0.328 µM: EC50 (SKNBE2)
2.5 µM: EC50 (NCI-H1944)
0.0194 µM: EC50 (SW48)
0.682 µM: EC50 (SK-LU-1)
